Experimental data from US20060204457A1, “Cosmetic uv-screen compositions and aminobutadiene-based uv-absorbing complexes therefor” (priority 2003, published 2006).

Experiment: Dye stability under Xenon test conditions; UV absorption after Xenon exposure
Assay type: physicochemical
Details: thin layer on TAC base
Description: Measurements are carried out at the Ci 4000 Xenon Weather-Ometer of Atlas Electric Devices Company. The extinction wavelength spectrum represents sunlight spectrum. Experiments are carried out with samples consisting of thin layers of UV absorbing complexes coated on TAC base materials, and dryed under air before Xenon radiation was started.
Solutions for coating on the TAC sheet materials are prepared by making a 5% gelatin solution of UV-gelatin in a suitable solvent (water/ethanol 50:50) for 30 minutes at a temperature of 40 C.
A fixed concentration of the UV absorbing complex was applied with a concentration of 5*10^−3 Mol/L
UV absorption of samples is measured with standard UV spectrophotometer system. UV absorption is directly correlated to the number of functional molecules in the samples after the Xenon treatment, and the results are listed in the following table.
UV absorption after Xenon radiation (in hours treatment time).

In the case of `O=c1c(O)c(-c2ccc(O)c(O)c2)oc2cc(O)cc(O)c12` [Quercetin], the “UV absorption after Xenon radiation” value (0 hours treatment time) is reported as 0.85, the “UV absorption after Xenon radiation” value (40 hours treatment time) is reported as 0.53 and the “UV absorption after Xenon radiation” value (80 hours treatment time) is reported as 0.20. The “UV absorption after Xenon radiation” value (120 hours treatment time) was 0.14.
